Laboratory results reported in patent US20160250238A1, “Method for the Prophylaxis or Treatment of Systemic Lupus Erythematosus and/or Lupus Nephritis” (MILLENNIUM PHARMACEUTICALS, INC., priority 2013, published 2016).
Marks after values point to notes of the source that are not given here.

Tests used:
[1] = tested on: anti-KLH antibody producing cells; test: ELISpot assay of anti-KLH IgG-secreting cells from spleen and bone marrow of KLH-immunized rats; type: in vivo, F344 rats; conditions: for The number of anti-KLH IgG-secreting cells, bone marrow / The number of anti-KLH IgG-secreting cells, Spleen: twice weekly for 4 weeks, mean ± SE (n = 10)
Protocol: (§1) F344 rats (male, 7 weeks old) were immunized with KLH plus adjuvant twice at day 0 and day 14. From 8 days after last immunization, rats were administered with vehicle or compound (I) (0.3 mpk, i.v. or 1.5 mpk, p.o.) twice weekly for 4 weeks, then the rats were sacrificed and serum, spleen and bone marrow were collected. All study protocols were approved by TAKEDA Animal Care and Use Committee.
Splenocytes and bone marrow cells were collected from spleen and bone marrow. The cells were cultured for 2 hours on 96 well plate pre-coated with KLH (Sigma, H7017-20 MG), then after washing with PBS, the plates were incubated with goat anti-rat IgG, HRP conjugate (Millipore, AP136P) for 1 hour. Anti-KLH antibody producing cells were visualized by adding TMB substrate and the number of anti-KLH antibody producing cells were counted by ELISpot reader system (AID).
(§2) Data represent mean values+s.e.m. (n=10). Student t test was used for statistical analysis (*p<0.05, **p<0.01 vs. control).

[2] = tested on: anti-KLH IgG; test: ELISA for anti-KLH IgG titer in serum of KLH-immunized rats (rat KLH-TDAR model); type: in vivo, F344 rats; conditions: for Anti-KLH IgG titer: twice weekly for 4 weeks, serum, mean ± SE (n = 10)
Protocol: as §1
Serum was stored at −80° C. until use. Anti-KLH IgG titer in serum was measured by ELISA (KLH rat IgG ELISA kit, Shibayagi).
as §2

CC(C)C[C@H](NC(=O)CNC(=O)c1cc(Cl)ccc1Cl)B(O)O [Compound (I), [(1R)-1-({[(2,5-dichlorobenzoyl)amino]acetyl}amino)-3-methylbutyl]boronic acid]
The number of anti-KLH IgG-secreting cells, bone marrow ([1]; 0.3 mpk, iv): 103.9 ± 16.9** /3 × 10^5cells | The number of anti-KLH IgG-secreting cells, Spleen ([1]; 0.3 mpk, iv): 37.0 ± 6.8** /1 × 10^6cells | The number of anti-KLH IgG-secreting cells, bone marrow ([1]; 1.5 mpk, po): 156.4 ± 32.0 /3 × 10^5cells | The number of anti-KLH IgG-secreting cells, Spleen ([1]; 1.5 mpk, po): 50.1 ± 12.2* /1 × 10^6cells | effect on the number of anti-KLH IgG-producing cells in spleen and bone marrow (in words) ([1]; four weeks treatment, 0.3 mpk, i.v. or 1.5 mpk, p.o., ELISpot): suppressed the number of anti-KLH IgG-producing cells in spleen and bone marrow | Anti-KLH IgG titer ([2]; 0.3 mpk, iv): 509.5 ± 54.4* | Anti-KLH IgG titer ([2]; 1.5 mpk, po): 545.8 ± 67.0* | effect on anti-KLH IgG titer (in words) ([2]; four weeks treatment, 0.3 mpk, i.v. or 1.5 mpk, p.o.): significantly suppressed the anti-KLH IgG titer
